The record followed here is US5194446A, “Compounds having one or more aminosulfaonyloxy radicals useful as pharmaceuticals” (A. H. Robins Company, Incorporated, priority 1991, dated 1993).

Data set [1] concerns adjuvant-induced arthritis test model in rats. Nature of the data set: adjuvant-induced arthritis test model in rats. Format: in vivo, rat (adult, female Lewis). Here is the method:
The test utilized to evidence antiarthritic properties of the compounds of Formula I is an adjuvant-induced arthritis test model in rats. Adjuvant arthritis was induced in adult, female Lewis rats as described by Walz et al. J. Pharmac. Exp. Ther. 178:223-231 (1971). Briefly, arthritis was induced in the rats by injection of 0.05 ml of a 1.5% suspension of killed Mycobacterium Butyricum into the right rear foot pad of each rat. Eighteen days later, those rats having a left hind paw volume (measured by mercury displacement up to a reference tatoo mark placed on the leg on Day 0) of 2.4 ml or greater were randomly assigned to treatment groups. The test, reference and control articles (as solutions or suspensions in 0.5% Tween 80) were given by gavage, beginning on Day 18 after adjuvant administration and for 5 days a week (Monday through Friday) through Day 49. Paw volumes were recorded on days 18, 29 and 50 after adjuvant injection. On Day 50, the rats were killed (carbon dioxide) and the uninjected hind limb was x-rayed and scored for bone damage on an arbitrary 1 (no damage) to 10 (maximum damage) scale.
Data collected for hind paw volumes and bone damage were analyzed by the Dunnett's t-test [Dunnett, C. W., J. Amer. Stat. Assoc., 50:1096-1121 (1955)], comparing a positive control group with several treated groups.

Data set [2] relates to seventeen (17) days-old chick embryo calvaria. Nature of the data set: bone resorption in vitro induced by parathyroid hormone (PTH). The conditions noted are these: Gallus gallus; for inhibition at 100 µM: compound 10^-4 M; for inhibition at 10 µM: compound 10^-5 M; for inhibition at 1 µM: compound 10^-6 M. Format: cell-based. The protocol:
In order to determine the effectiveness of Formula I compounds in the treatment and/or prevention of osteoporosis in mammalian species an in vitro experimental procedure was utilized to measure bone resorption. The procedure utilized was as follows.
Bone resorption in vitro was measured essentially as outlined by Hall and Kenny (Pharmacology 30:339-347, 1985), except however, seventeen (17) days-old chick embryo calvaria were utilized instead of mice calvaria. Resorption is defined as the amount of calcium (mg/ml) in the medium of vehicle-treated cultures. The effects of the Formula I test compounds were determined by monitoring the effect on calcium concentrations in presence of drug relative to control calcium concentrations at a particular PTH (parathyroid hormone) concentration. The % inhibition of resorption induced by parathyroid hormone by Formula I compounds was calculated as follows: [formula] where Ca (PTH)=Ca (PTH)-Ca (Vehicle medium), and
Ca (PTH+Formula I compound)=Ca (PTH+Formula I compound)

Data set [3] in a line: hygroscopicity observation. Format: physicochemical. Conditions: white crystals.

`COc1ccccc1OCC(COS(N)(=O)=O)OS(N)(=O)=O` (centres unmarked) [Example 3, 1-[(2-Methoxyphenoxy)methyl]-1,2-ethanediol bisulfamate (ester)]: in data set [1] (1 mg/kg to 100 mg/kg by gavage, Dunnett's t-test), the “reduction in paw edema, significance” value is given as “significant”. The bone damage score in data set [1] (1 (no damage) to 10 (maximum damage) scale, x-ray of uninjected hind limb, Day 50, dosage range 1 mg/kg to 100 mg/kg by gavage, controls scored 8 to 9) was 5.4-5.9. In data set [1] (vs. controls, 1 mg/kg to 100 mg/kg by gavage, Dunnett's t-test), the “reduction in bone damage, significance” value is “significant”. Besides, the inhibition – broadly, the change of the read-out against control, counted positive when it falls – at 100 µM in data set [2] (PTH 10^-7 M) was 10%; in data set [2] (PTH 10^-8 M), 40.5%; in data set [2] (PTH 10^-9 M), 66.5%; in data set [2] (PTH 10^-10 M), 100%. Also, the inhibition at 10 µM in data set [2] (PTH 10^-7 M) amounted to 21%; in data set [2] (PTH 10^-8 M), 37%; in data set [2] (PTH 10^-9 M) it was 86%; in data set [2] (PTH 10^-10 M) it was 100%. Further, the inhibition at 1 µM turned out to be 21% in data set [2] (PTH 10^-7 M), 29% in data set [2] (PTH 10^-8 M), 100% in data set [2] (PTH 10^-9 M) and 100% in data set [2] (PTH 10^-10 M). The same molecule showed an inhibition at 0.1 µM in data set [2] (compound 10^-7 M, PTH 10^-8 M) of 23%.

On to `NS(=O)(=O)OCCN1CCCC1=O` [Example 63, 1-[2-[(Aminosulfonyl)oxy]ethyl]-2-pyrrolidinone], for which the hygroscopicity entry in data set [3] is reported as “slightly hygroscopic”.
